Results as given in PMC12040169 (PLOS Biology, 2025).

Test: in vitro
Conditions: human, hela cells, % viability

Row | Compound | viability at 28.5 h, 10 µM [%]
1 | CC(C)c1nnc(C2(c3ccc(Br)cc3)CCOCC2)o1 [CBK306230] | 86.4
2 | Cc1cc(NC(=O)C(C)SCc2cccc(C(F)(F)F)c2)no1 (centres unmarked) [CBK306233] | 95.5
3 | C#CCN(C1CCc2ccccc21)S(=O)(=O)c1cc(C(=O)NC)n(C)c1 (centres unmarked) [CBK306235] | 91.8
4 | Cn1cc(Nc2nc(-c3ccc4c(c3)CCCN4S(C)(=O)=O)cs2)cn1 [CBK306236] | 85.7
5 | CCCn1cc(NC(=O)C2(c3ccccc3)CCC2)ccc1=O [CBK306237] | 95.4
6 | Cc1cc(C)n(C2CN(CC(=O)NCc3ccccn3)C2)n1 [CBK306238] | 88.3
7 | CCC1CCCCN1C(=O)Cc1c(C)nc(-c2cccnc2)[nH]c1=O (centres unmarked) [CBK306240] | 91.6
8 | O=C(Cn1ccc(=O)[nH]c1=O)NCC1(Sc2ccccc2)CC1 [CBK306242] | 110
9 | COCC1CCN(c2c(F)cc(C#N)cc2F)CC1 [CBK306244] | 104
10 | Cc1ccccc1-c1cc(C(=O)N(C)C)c2cnn(C(C)C)c2n1 [CBK306245] | 98.6
11 | Cc1nnnn1-c1cc(NC(=O)NCCN2CCOCC2)ccc1F [CBK306246] | 89.2
12 | CC(=O)Nc1cccc(C(C)NC(=O)N(C)C2CCc3ccccc32)c1 (centres unmarked) [CBK306251] | 102
13 | Cc1cccn2cc(CC(=O)NC3(C#N)CCCCC3)nc12 [CBK306252] | 95.2
14 | CCc1nc(CN2CCCC(NCc3cccc(C(N)=O)c3)C2)no1 (centres unmarked) [CBK306254] | 87.2
15 | CC(C)Cc1nc(Cn2cnc3c(cnn3C)c2=O)no1 [CBK306256] | 90.7
16 | CNS(=O)(=O)c1cccc(C(C)NC(=O)N2CCC2)c1 (centres unmarked) [CBK306257] | 87.1
17 | Cc1cc(S(=O)(=O)Nc2ccccc2-c2nnnn2C(C)C)c(C)o1 [CBK306259] | 111
18 | CCCCNc1cc(N2CCN(c3cnn(C)c3)C(=O)C2)nc(N)n1 [CBK306260] | 87.8
19 | CCc1cnc(CNC(=O)NCc2nc3cc(C)ccc3n2C)s1 [CBK306261] | 98.9
20 | CS(=O)(=O)c1ccc(-n2nnnc2CN2CCC3(CCC3)C2)cc1 [CBK306262] | 79.6
21 | Cc1c(NC(=O)C2CCN(c3ccccc3Cl)C2)nnn1C (centres unmarked) [CBK306263] | 90.7
22 | Cn1cnc2cc(-c3nnn[nH]3)ccc21 [CBK306265] | 90.2
23 | Cn1c(=O)n(C)c2cc(S(=O)(=O)NCC3(N)CCOCC3)ccc21 [CBK306266] | 113

Row | Compound | viability at 28.5 h, 10 µM [%]
24 | Cc1ccc2[nH]c3c(c2c1)CC(NS(=O)(=O)c1c(N)noc1C)CC3 (centres unmarked) [CBK306270] | 86.6
25 | Cc1occc1C(=O)Nc1nc(CC(=O)N2CC(C)SC(C)C2)cs1 (centres unmarked) [CBK306271] | 87.8
26 | CC(C)Cn1cnc(S(=O)(=O)N2CCC(Cc3ccccc3)CC2)c1 [CBK306273] | 92.3
27 | Cc1nc(C)n(CC2CCCN(S(=O)(=O)c3cnc4ccsc4c3)C2)n1 (centres unmarked) [CBK306274] | 84.3
28 | COc1cc(C)nc(NCc2cnn(C)c2C)n1 [CBK306277] | 85.4
29 | COCC1CN(C(=O)Nc2nnc(Cc3ccc(C)cc3)s2)CCO1 (centres unmarked) [CBK306278] | 83.3
30 | Cn1nccc1NC(=O)Nc1ccc(CN2CCOC2=O)cc1 [CBK306279] | 88
31 | COCCn1c(SCc2cn3ccccc3c2C#N)nc(C)c1C [CBK306282] | 92.4
32 | Cc1noc(C)c1CN(C)C(=O)NC1CCCc2c1cnn2CCO (centres unmarked) [CBK306283] | 92.5
33 | CCc1nc(CN2CCN(c3ccc4nc(C)nn4n3)CC2)cs1 [CBK306285] | 89.1
34 | CCOc1cc(NC2CCN(C(=O)OC(C)(C)C)CC2)ncn1 [CBK306288] | 89.6
35 | CN(Cc1ccco1)C(=O)NC1CCCc2c1cnn2CCO (centres unmarked) [CBK306290] | 108
36 | CC(c1ccc(F)c(F)c1)N(C)C(=O)Cn1cnc2c(c1=O)CCC2 (centres unmarked) [CBK306291] | 88.6
37 | Cn1ncc2c1CCCC2NC(=O)N(CCO)Cc1ccccc1 (centres unmarked) [CBK306293] | 86.1
38 | Cc1ncc(CN(C)C(=O)c2cccc(NC(=O)C3CCCCC3)c2)s1 [CBK306295] | 83
39 | CCN1CCCN(c2ccc(-n3ccc(C)n3)nn2)CC1 [CBK306297] | 108
40 | CCn1c(CN2CCn3c(nnc3C3CC3)C2)nc2c(F)cccc21 [CBK306300] | 96.6
41 | Cc1ccn(-c2ccc(N3CCC4(CCOC4)C3)nn2)n1 (centres unmarked) [CBK306302] | 87.8
42 | Cn1ncnc1COc1ccc(S(=O)(=O)NC2CCCC2)cc1 [CBK306305] | 107
43 | CNC(=O)C1CCCCN1C(=O)c1cn(CCOC)c2ccccc12 (centres unmarked) [CBK306308] | 94.8
44 | Cn1cc(CNCCCN2CCc3ccccc32)c(-c2cccnc2)n1 [CBK306316] | 93.3
45 | CC(=O)N(C)Cc1cccc(Nc2ncnc3c2cnn3C)c1 [CBK306319] | 95.3
46 | O=C(Nc1cc(N2CCCS2(=O)=O)ccc1F)c1cccnc1O [CBK306320] | 97.4

Row | Compound | viability at 28.5 h, 10 µM [%]
47 | Cc1nc2ccccc2n1CC(=O)N(CCC#N)Cc1ccco1 [CBK306323] | 86.1
48 | O=C(NCCc1cccs1)NC1CCCc2c1cnn2CCO (centres unmarked) [CBK306324] | 92.6
49 | CCCCN(C)S(=O)(=O)NCc1cn2ccccc2n1 [CBK306329] | 97.9
50 | CC(C#N)(NC(=O)COc1ncnc2sc3c(c12)CCC3)C1CC1 (centres unmarked) [CBK306333] | 88.1
51 | N#Cc1c(F)cccc1N1CCCC(C(=O)Nc2nncs2)C1 (centres unmarked) [CBK306335] | 96.8
52 | CCc1nc(CC(=O)NC(c2ccc(F)cc2)C2CCCO2)cs1 (centres unmarked) [CBK306336] | 117
53 | CC(N(C)CC(=O)NCc1ccc(OCC(N)=O)cc1)C(C)(C)C (centres unmarked) [CBK306338] | 99.2
54 | CCOCCCNC(=O)C1CCN(c2cccc(F)c2C#N)CC1 [CBK306341] | 91.9
55 | O=C(NC1CC1)C1CCN(Cn2nnc3ccccc3c2=S)CC1 [CBK306342] | 94.1
56 | N#Cc1cccc(C(=O)NCC2(N3CCOCC3)CCSC2)c1 (centres unmarked) [CBK306344] | 121
57 | CN(CC(N)=O)c1nc(-c2cccnc2)nc2ccccc12 [CBK306346] | 87
58 | Cc1ccnc(NCC2CCN(c3ccc4nnnn4n3)C2)c1 (centres unmarked) [CBK306348] | 57.3
59 | Cc1ccsc1CN(C)C(=O)NC1CCCc2c1cnn2CCO (centres unmarked) [CBK306349] | 83
60 | COCCSCc1cn2cc(Br)ccc2n1 [CBK306361] | 96.5
61 | Cn1cc(CCCCNC(=O)Cc2c[nH]c3ccc(Cl)cc23)cn1 [CBK306364] | 76
62 | Cc1ocnc1C(=O)Nc1nc2c(cc1C#N)CCC2 [CBK306365] | 92.7
63 | Cc1ccc(CCC(=O)Nc2nc3c(cc2C#N)CCC3)o1 [CBK306366] | 67.1
64 | CCCOC1CCCN(S(=O)(=O)c2cnc3ccsc3c2)C1 (centres unmarked) [CBK306367] | 75.5
65 | O=C1CCN(Cc2nc(-c3cccc(C(F)(F)F)c3)no2)CCN1 [CBK306368] | 109
66 | CC(NC(=O)CC(F)(F)F)c1nc(-c2ccncc2)cs1 (centres unmarked) [CBK306370] | 88.5
67 | CCN(Cc1ccc(C#N)cc1F)C(=O)C(NC(=O)OC)C(C)C (centres unmarked) [CBK306372] | 86.2
68 | CCNc1ncc(C(=O)N2CCOC(c3ccc(F)c(C)c3)C2)s1 (centres unmarked) [CBK306375] | 95.4
